In one test the test system is phospholipase D. The test can be described thus: In vitro activity of phospholipase D. The class given is biochemical. The settings on record: data not shown.
Another test deals with NIH3T3 cells. Briefly: [Ca2+]i measurement with fura-2. The class given is cell-based, mouse. The settings on record: NIH 3T3; 25 μM. Here is the method:
Neutrophils and HL60, and differentiated HL60, U937, NIH3T3, and PC12 cells were loaded with fura-2 and then stimulated with 25 μM of m-3M3FBS. Changes in the 340 nm/380 nm excitation ratio were monitored, and converted to [Ca^2+]i levels. Data are presented as means ±S. E. M. of three independent experiments.
U937 (human histiocytic lymphoma cells), HL60 (human promyelocytic leukemia cells), NIH3T3 (NIH Swiss mouse embryo fibroblasts), and PC12 (rat adrenal pheochromocytoma cells) were obtained from the American Type Culture Collection (Rockville, Md.) and HeLa (human adenocarcinoma cells) Tet-off cells were purchased from Clontech (Palo Alto, Calif., U.S.A.) and maintained as recommended. The cells were maintained at about 1×10^6 cells/ml under standard incubator conditions (humidified atmosphere, 95% air, 5% CO2, 37° C.). […]
Freshly prepared human neutrophils were incubated in serum free RPMI 1640 medium with 3 μM of fura-2/AM at 37° C. for 30 min with continuous stirring. […] Changes in the fluorescence ratio were measured at an emission wavelength of 500 nm for dual excitation wavelengths at 340 nm and 380 nm. The calibration of the fluorescence ratio versus [Ca^2+]i was performed as described by Grynkiewicz (Grynkiewicz et al., 1985).

Test [1] relates to human neutrophils. The test can be described thus: Cross-desensitization of [Ca2+]i responses in neutrophils. The class given is cell-based. As to conditions: extracellular calcium free. How it is done:
FIG. 5 describes cross-desensitization experiments. Fura-2-loaded neutrophils were pretreated with m-3M3FBS (25 μM) and then rechallenged with ATP (500 μM) or WKYMVm (1 μM) in this or in the reverse order in the extracellular calcium free condition. Changes in the 340 nm/380 nm excitation ratio were monitored, and converted to [Ca^2+]i levels. The results shown are representative of three independent experiments.
(§1) Freshly prepared human neutrophils were incubated in serum free RPMI 1640 medium with 3 μM of fura-2/AM at 37° C. for 30 min with continuous stirring. After washing with serum free RPMI 1640 medium, the cells were suspended in serum free RPMI containing 250 μM of sulfinpyrazone to prevent dye leakage. About 2×10^6 cells were suspended in Ca^2+ free Locke's solution (158.4 mM NaCl, 5.6 mM KCl, 1.2 mM MgCl2, 5 mM HEPES pH 7.3, 10 mM glucose, and 0.2 mM EGTA) for each measurement. Changes in the fluorescence ratio were measured at an emission wavelength of 500 nm for dual excitation wavelengths at 340 nm and 380 nm. The calibration of the fluorescence ratio versus [Ca^2+]i was performed as described by Grynkiewicz (Grynkiewicz et al., 1985).

Test [2] concerns human neutrophils. The test can be described thus: [Ca2+]i measurement with fura-2 in neutrophils. The class given is cell-based. How it is done: Fura-2-loaded neutrophils were stimulated with m-3M3FBS or o-3M3FBS at 25 μM in extracellular calcium containing 2 mM or extracellular free calcium conditions. The results shown are representative of three independent experiments (A). Prepared neutrophils were loaded with fura-2 and then stimulated with 25 μM of m-3M3FBS in the absence or in the presence of 4 μM of U-73122 or U-73343 (B). Changes in 340 nm/380 nm excitation ratio were monitored, and converted to [Ca^2+]i levels. Data are presented as means ±S. E. M. of three independent experiments.
as §1

The next test relates to Gs-proteins. Briefly: Cyclic AMP generation (radio receptor assay). The class given is cell-based. The settings on record: human neutrophils; m-3M3FBS 25 μM, histamine 100 μM. How it is done: Isolated neutrophils were preincubated with PTX (1 μg/ml) or vehicle for 90 min at 37° C. and stimulated with m-3M3FBS, FMLF, or ATP at concentrations of 25, 1, and 500 μM, respectively. Changes in the excitation ratios at 340 nm/380 nm were monitored. Data are presented as means ±S. E. M. of two independent experiments (A). cAMP levels were determined by a radio receptor assay. Prepared cells were treated with m-3M3FBS (25 μM) or histamine (100 μM) and then lysed with Tris-EDTA. After removing the supernatant, [ 3H] cAMP and protein were added, and the amount of [^3H] cAMP-protein complex was determined. The amount of unlabeled cAMP (in the sample) was then calculated by measuring the protein-bound radioactivity. Data are presented as means ±S. E. M. of two independent experiments (B). […] RGS2-GFP inducible HeLa cells were cultured for 48 h in the absence or in the presence of tetracycline and loaded with fura-2. Cells were treated with histamine (100 μM) or m-3M3FBS (25 μM), and changes in the 340 nm/380 nm ratios were monitored and converted to [Ca^2+]i values. The results shown are representative of three independent experiments (C).

Test [3] deals with human neutrophils. Briefly: Superoxide anion generation (lucigenin chemiluminescence). The class given is cell-based. The settings on record: up to 50 μM. How it is done: Superoxide anion generation was measured by monitoring chemiluminescence in the presence of the chemiluminogenic probe lucigenin. Prepared neutrophils were stimulated with m-3M3FBS or o-3M3FBS at 2.5, 5, 10, 15, 20, 25, and 50 μM and lucigenin (40 μM) was then added. Luminescence changes were measured using a Luminoskan. Data are presented as means ±S. E. M. of four independent experiments (A). Structures of m-3M3FBS (2,4,6-Trimethyl-N-(meta 3-trifluoromethyl-phenyl)-benzenesulfonamide) and o-3M3FBS (2,4,6-Trimethyl-N-(ortho 3-trifluoromethyl-phenyl)-benzenesulfonamide) (B).
Superoxide anion production was measured by monitoring chemiluminescence in the presence of the chemiluminogenic probe lucigenin (Bureau et al., 2001). Prepared neutrophils were plated in 96 wells and stimulated with chemicals at concentrations of 2.5, 5, 10, 15, 20, 25 and 50 μM, and then the lucigenin (40 μM) was added. Luminescence, measured with a Luminoskan (Labsystems, Inc., Helsinki, Finland), was integrated over 10 s intervals for a total of 3 min at room temperature.

[4] abbreviates: 25 μM, extracellular Ca2+ at physiologic levels (2 mM).

The structures appear in SMILES notation.

`Cc1cc(C)c(S(=O)(=O)Nc2cccc(C(F)(F)F)c2)c(C)c1` [m-3M3FBS, 2,4,6-Trimethyl-N-(meta 3-trifluoromethyl-phenyl)-benzenesulfonamide]: the “activity of phospholipase D” value in the test with phospholipase D is recorded as “did not affect”. Also, the calcium increase result in the test with NIH3T3 cells was “induced calcium increase”; with human neutrophils [2] (human neutrophils, 25 μM), “induced calcium increase”. The “[Ca2+]i response when given after ATP or WKYMVm” value in the test with human neutrophils [1] (25 μM after ATP 500 μM or WKYMVm 1 μM) was “elicited still further [Ca^2+]i increases”. The “effect of prestimulation on cellular response to ATP” value with human neutrophils [1] (m-3M3FBS 25 μM, then ATP 500 μM) is on record as “significantly reduced”. In the test with human neutrophils [1] (m-3M3FBS 25 μM, then WKYMVm 1 μM), the “effect of prestimulation on cellular response to WKYMVm” value is “significantly reduced”. Moreover, the “[Ca2+]i increase” value in the test with human neutrophils [2] (setting [4]) was “caused a [Ca^2+]i increase”; in the test on human neutrophils [2] (25 μM, extracellular calcium-depleted condition) it was “evoked a [Ca^2+]i increase”. The “concentration of saturated maximal activity of [Ca2+]i release” value in the test with human neutrophils [2] (concentration dependent, data not shown) is 50 µM. Moreover, in the test on Gs-proteins, the “intracellular cAMP level” value is “didn't change the cAMP level”.

On to `Cc1cc(C)c(S(=O)(=O)Nc2ccccc2C(F)(F)F)c(C)c1` [o-3M3FBS, 2,4,6-Trimethyl-N-(ortho 3-trifluoromethyl-phenyl)-benzenesulfonamide, reference compound], for which the “effect on superoxide generation” value in the test on human neutrophils [3] is “did not affect”. Also, the “[Ca2+]i increase” value with human neutrophils [2] (setting [4]) is on record as “failed to elicit this response”.
